Experimental findings from patent US20260055117A1, “SUBSTITUTED PYRIDONE GPR84 ANTAGONISTS AND USES THEREOF” (Liminal BioSciences Limited, priority 2022, published 2026) are described below.

In general, inhibition refers to how much of the control response was suppressed. High values mean a strong effect, low ones a weak effect. As usually defined, the IC50 is the midpoint of a concentration-inhibition curve. A low value points to inhibition by little substance.

Structures are written as SMILES. Bounds are passed on as bounds.

The target of this experiment is T1, human GPR84 receptor (Homo sapiens, UniProt Q9NQS5).
T1 construct: host or cells: HEK293, transiently transfected
Kind of experiment: Gαi biosensor BRET assay (GPR84 antagonism vs agonist ZQ-16). It is filed as cell-based. The conditions noted are these: HEK293 cells, 200 nmol/L agonist ZQ-16; for inhibition at 10 µM: tested at 10 μM (concentration code D); for IC50: Gαi biosensor BRET assay; for inhibition at 2 µM: tested at 2 μM (concentration code A). The text has this:
Background—The following assays can be used for determination of GPR84 activation in living HEK293 cells. The Gai BRET biosensor (Gagnon et al., 2018; Gales et al., 2006. Nat Struct Mol Biol. 13, 778-86; Saulieres et al., 2012. Nat Chem Biol. 8, 622-30) allows to directly monitor GPR84-mediated activation of Gai. The Gai biosensor consists of a Rluc8-tagged Gai2 subunit, a GFP10-tagged Gy2 subunit, and an untagged GB1. Agonist stimulation and GPR84 activation triggers a physical separation between the RLuc8-Gai donor and the GFP10-Gy2 acceptor, resulting in a decrease in BRET signal whose amplitude is correlated to ligand efficacy (Gales et al., 2006). Moreover, signaling functions of GPCRs are tightly regulated by endocytosis, the targeting of receptors to endosomes and their sorting to lysosomes or recycling to the plasma membrane. The early endosomes (EEs) trafficking assay (Namkung et al., 2016. Nat Commun. 7, 12178) uses Rluc8-tagged GPR84 and Renilla GFP (rGFP) attached to the FYVE domain from human endofin/zinc finger FYVE domain-containing protein 16, which binds phosphatidylinositol 3-phosphate in EEs. Agonist stimulation of GPR84-Rluc8 leads to trafficking of the receptor to EEs, and ensuing increase of the donor concentration relative to the rGFP-FYVE acceptor anchored in the same cellular compartment, and thus results in an increase in BRET signal.
Plasmids—The cDNA clones for human GPR84 receptor, human Gai2, GB1, and Gy2 were obtained from the cDNA Resource Center (www.cdna.org). GFP10 (F64L, S147P, S202F and H231L variant of Aequorea victoria Green Fluorescent Protein) gBlocks gene fragments (Integrated DNA Technologies, IA) and linker were inserted in frame at the N-terminus of human Gy2. Rluc8 (A55T, C124A, S130A, K136R, A143M, M185V, M253L, and S287L variant of the Renilla reniformis luciferase) gBlocks gene fragment was inserted with linkers in frame in between residues 91 and 92 of Gai2 or at the C-terminus of GPR84. The FYVE domain from human endofin (residues Q739 to K806) attached in frame at the C terminus of a humanized Renilla GFP (rGFP), were synthesized as gBlocks gene fragments.
Bioluminescence Resonance Energy Transfer (BRET) Measurement-HEK293 cells were transfected with GPR84-Rluc8 and rGFP-FYVE for the EEs trafficking biosensor or with GPR84, Gai2-Rluc8, GFP10-Gy2, and GB1 for the Ga; biosensor. The following day, transiently transfected cells were seeded in 96-well white clear bottom microplates coated with poly-D-lysine and left in culture for 24 hours. Cells were washed once with Tyrode's buffer (140 mmol/L NaCl, 1 mmol/L CaCl2), 2.7 mmol/L KCl, 0.49 mmol/L MgCl2, 0.37 mmol/L NaH2PO4, 5.6 mmol/L glucose, 12 mmol/L NaHCO3, and 25 mmol/L HEPES, pH 7.5) before performing assays in Tyrode's buffer. Test compounds were incubated with cells for 5 (Gai) or 15 (EEs) minutes at 37° C. before addition of 200 nmol/L of the GPR84 agonist ZQ-16 (2-(Hexylthio)-6-hydroxy-4 (3H)-pyrimidinone) for 5 minutes at room temperature (Gai) or 30 minutes at 37° C. (EEs). The Rluc8 substrate coelenterazine 400A (Prolume, Lakeside, A Z) was added at a final concentration of 5 μmol/L and BRET readings were collected using an Infinite M1000 microplate reader (Tecan, Morrisville, N C). BRET2 readings between Rluc8 and GFP10 or rGFP were collected by sequential integration of the signals detected in the 370 to 450 nm (Rluc8) and 510 to 540 nm (GFP10, rGFP) windows. The BRET signal was calculated as the ratio of light emitted by acceptor (GFP10, rGFP) over the light emitted by donor (Rluc8). The values were corrected to net BRET by subtracting the background BRET signal obtained in cells transfected with Rluc8 constructs alone. Ligand-promoted net BRET values were calculated by subtracting vehicle-induced net BRET from ligand-induced net BRET.
In general terms: Bioluminescence resonance energy transfer reports proximity on the nanometre scale.

T1 sequence (Q9NQS5 whole entry): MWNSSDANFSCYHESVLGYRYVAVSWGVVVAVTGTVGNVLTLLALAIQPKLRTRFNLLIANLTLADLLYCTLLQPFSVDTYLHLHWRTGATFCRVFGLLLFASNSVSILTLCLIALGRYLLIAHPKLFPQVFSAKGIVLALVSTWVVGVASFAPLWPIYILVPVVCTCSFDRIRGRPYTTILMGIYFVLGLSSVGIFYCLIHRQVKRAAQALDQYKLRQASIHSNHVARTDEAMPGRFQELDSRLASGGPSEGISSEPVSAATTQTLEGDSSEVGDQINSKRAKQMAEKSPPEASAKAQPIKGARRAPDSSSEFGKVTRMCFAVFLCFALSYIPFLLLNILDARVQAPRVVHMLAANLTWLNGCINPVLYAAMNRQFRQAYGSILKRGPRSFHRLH

On to `Cc1cc(C#CC2CC2)cc(=O)n1[C@@H](C)c1ccc(C#CC2CC2)cc1` [Compound I-234], for which the inhibition at 10 µM was less than 25%.

On to `Cc1cc(OCC(=O)N2CCNCC2)cc(=O)n1[C@H](C)c1ccc(C#CC2CC2)cc1` [Compound I-61], for which the inhibition at 10 µM is more than 75%.

`Cc1nc(OCC(=O)N2CC[C@H](C(=O)O)C2)cc(=O)n1[C@H](C)c1ccc(C#CC2CC2)cc1` [Compound I-299] returned an IC50 of 1000 to 3000 nM and an inhibition at 2 µM of more than 75%.

`Cc1noc(COc2cc(C)n([C@H](C)c3ccc(C#CC4CC4)cc3)c(=O)c2)n1` [Compound I-12] gave an inhibition at 10 µM of more than 75%.

For `Cc1cc(OCC(=O)N2CC[C@@H](O)C2)cc(=O)n1[C@H](C)c1ccc(C#CC2CC2)cc1` [Compound I-241], the IC50 was not above 300 nM and the inhibition at 2 µM is more than 75%.

For `Cc1cc(OCC(=O)N2CC[C@H](C3CC3)C2)cc(=O)n1[C@H](C)c1ccc(C#CC2CC2)cc1` [Compound I-312], the inhibition at 2 µM is more than 75%.

Take `CC(=O)C(C)(C)Oc1cc(C)n([C@H](C)c2ccc(C#CC3CC3)cc2)c(=O)c1` [Compound I-271]: the inhibition at 10 µM is 25 to 50%.

Molecule `CNS(=O)(=O)[C@@H]1CCN(C(=O)COc2cc(C)n([C@H](C)c3ccc(C#CC4CC4)cc3)c(=O)c2)C1` [Compound I-321] had an IC50 not above 300 nM and an inhibition at 2 µM of more than 75%.

As to `Cc1cc(OCC2(N(C)C)CC2)cc(=O)n1[C@H](C)c1ccc(C#CC2CC2)c(F)c1` [Compound I-31], the inhibition at 10 µM was in the range of 25 to 50%.

`Cc1cc(OCC(=O)N2C[C@@H](O)[C@@H](O)C2)cc(=O)n1[C@H](C)c1ccc(C#CC2CC2)cc1` [Compound I-316] yielded an IC50 not above 300 nM and an inhibition at 2 µM of more than 75%.

In turn, `Cc1cc(OCC(=O)N(C)CC(C)C)cc(=O)n1[C@H](C)c1ccc(C#CC2CC2)cc1` [Compound I-65] displayed an IC50 not above 300 nM and an inhibition at 10 µM of more than 75%.

For `Cc1cc(OCC(=O)N2CCC[C@H]2C2CC2)cc(=O)n1[C@H](C)c1ccc(C#CC2CC2)cc1` [Compound I-308], the IC50 lay in the range of 300 to 1000 nM and the inhibition at 2 µM is more than 75%.

Consider `Cc1cc(OCC(=O)C2CCCC2)cc(=O)n1[C@H](C)c1ccc(C#CC2CC2)cc1` [Compound I-273], for which the inhibition at 10 µM is more than 75%.

The molecule `Cc1cc(OCC(=O)N2CCCC2(C)C)cc(=O)n1[C@H](C)c1ccc(C#CC2CC2)cc1` [Compound I-258] showed an IC50 not above 300 nM and an inhibition at 2 µM of more than 75%.

The molecule `Cc1cc(OCC(=O)N2CC(C(=O)O)C2)cc(=O)n1[C@H](C)c1ccc(C#CC2CC2)cc1` [Compound I-302] showed an IC50 not above 300 nM and an inhibition at 2 µM of more than 75%.

Take `Cc1nc(OCC(=O)N2CCCC2)cc(=O)n1[C@@H](C)c1ccc(C#CC2CC2)cc1` [Compound I-236]: the inhibition at 10 µM lay in the range of 25 to 50%.

`Cc1cc(OCC(=O)N2CCC[C@H]2CO)cc(=O)n1[C@H](C)c1ccc(C#CC2CC2)cc1` [Compound I-248] returned an IC50 not above 300 nM and an inhibition at 2 µM of more than 75%.

`Cc1cc(C#CC2CC2)cc(=O)n1[C@H](C)c1ccc(C#CC2CC2)cc1` [Compound I-90] came in with an inhibition at 10 µM of 50 to 75%.

The molecule `C#Cc1ccc([C@@H](C)n2c(C)cc(OCC(=O)N(C)C)cc2=O)cc1` [Compound I-295] yielded an inhibition at 5.4 µM (tested at 5.4 μM (concentration code C)) of more than 75%.

In turn, `Cc1nc(OCC(=O)N(C)C2COC2)cc(=O)n1[C@H](C)c1ccc(C#CC2CC2)cc1` [Compound I-68] yielded an IC50 not above 300 nM and an inhibition at 10 µM of more than 75%.

In turn, `Cc1cc(OCC(=O)NC2CCN(C)CC2)cc(=O)n1[C@H](C)c1ccc(C#CC2CC2)cc1` [Compound I-43] returned an inhibition at 10 µM of 50 to 75%.

In the case of `Cc1cc(OCc2nnnn2C)cc(=O)n1[C@H](C)c1ccc(C#CC2CC2)cc1` [Compound I-260], the IC50 is not above 300 nM and the inhibition at 2 µM is more than 75%.

Turning to `COCCNC(=O)COc1cc(C)n([C@H](C)c2ccc(C#CC3CC3)cc2)c(=O)c1` [Compound I-349], the inhibition at 10 µM was more than 75%.

Regarding `Cc1cc(OCC(=O)N(C)C)cc(=O)n1[C@H](C)c1ccc(C#CC2CC2)c(Cl)c1` [Compound I-29], the IC50 is not above 300 nM and the inhibition at 2 µM is more than 75%.

On to `Cc1cc(OCC(=O)N2CCCCC2)cc(=O)n1[C@H](C)c1ccc(C#CC2CC2)cc1` [Compound I-341], for which the half-maximal inhibitory concentration (IC50) is not above 300 nM and the inhibition at 2 µM was more than 75%.

The molecule `Cc1cc(OCC(=O)N2CC3(CC3)C2)cc(=O)n1[C@H](C)c1ccc(C#CC2CC2)cc1` [Compound I-344] displayed an IC50 not above 300 nM and an inhibition at 2 µM of more than 75%.

Regarding `Cc1cc(OCc2ncc(NS(=O)(=O)C(F)(F)F)cn2)cc(=O)n1[C@H](C)c1ccc(C#CC2CC2)cc1` [Compound I-76], the IC50 was not above 300 nM and the inhibition at 2 µM was more than 75%.

`Cc1cc(OCC(=O)N(C)C)c(Br)c(=O)n1[C@H](C)c1ccc(C#CC2CC2)cc1` [Compound I-317] came in with an inhibition at 10 µM of 50 to 75%.

On to `Cc1cc(OCc2cnc(NS(C)(=O)=O)nc2)cc(=O)n1[C@H](C)c1ccc(C#CC2CC2)cc1` [Compound I-81], for which the IC50 is not above 300 nM and the inhibition at 10 µM was more than 75%.

In turn, `Cn1c(-c2ccc(C#CC3CC3)cc2)cc(OCC2COCCO2)nc1=O` (stereo not drawn) [Compound I-215] came in with an inhibition at 10 µM of less than 25%.

Consider `Cc1cc(OCC(=O)N2CCC(C)(C)C2)cc(=O)n1[C@H](C)c1ccc(C#CC2CC2)cc1` [Compound I-256], for which the inhibition at 2 µM was more than 75%.

`Cc1cc(OCC(=O)N2CC[C@@H](F)C2)cc(=O)n1[C@H](C)c1ccc(C#CC2CC2)cc1` [Compound I-243] registered an IC50 not above 300 nM and an inhibition at 2 µM of more than 75%.

As to `Cc1cc(OCC(=O)N2CC[C@H](NS(C)(=O)=O)C2)cc(=O)n1[C@H](C)c1ccc(C#CC2CC2)cc1` [Compound I-335], the inhibition at 2 µM is more than 75%.

On to `Cc1nnc(COc2cc(C)n([C@H](C)c3ccc(C#CC4CC4)c(F)c3)c(=O)c2)o1` [Compound I-17], for which the IC50 is not above 300 nM and the inhibition at 2 µM is more than 75%.

In turn, `Cc1cc(OCC(=O)N2CCC(F)(F)CC2)cc(=O)n1[C@H](C)c1ccc(C#CC2CC2)c(F)c1` [Compound I-26] showed an inhibition at 10 µM of more than 75%.

`Cc1cc(OCC(=O)N(C)C)cc(=O)n1[C@H](C)c1ccc(C#CCC2CC2)cc1` [Compound I-32] had an IC50 not above 300 nM and an inhibition at 2 µM of more than 75%.

Molecule `Cc1cc(COCC(=O)N(C)C)cc(=O)n1[C@H](C)c1ccc(C#CC2CC2)cc1` [Compound I-340] had an inhibition at 10 µM of 50 to 75%.

For `COc1ccc([C@H](C)n2c(C)cc(C#CC3CC3)cc2=O)cc1` [Compound I-239], the inhibition at 2 µM was less than 25%.

Consider `Cc1cc(OCC(=O)N2CC(C)OC(C)C2)cc(=O)n1[C@H](C)c1ccc(C#CC2CC2)cc1` (stereo partly drawn) [Compound I-348], for which the inhibition at 10 µM is more than 75%.

Consider `Cc1cc(OCC(=O)N2CC[C@@H]2C(=O)O)cc(=O)n1[C@H](C)c1ccc(C#CC2CC2)cc1` [Compound I-300], for which the IC50 lay in the range of 1000 to 3000 nM and the inhibition at 10 µM was more than 75%.
